Test results published in patent US20170304306A1, “SELECTIVE NaV1.7 INHIBITORS FOR THE TREATMENT OF DIABETES” (CHROMOCELL CORPORATION, priority 2014, published 2017).
Blank lines part the entries; values can stand above or below the compound they belong to.

Tests used:
NaV1.1 = target: T1, NaV1.1 (Homo sapiens, UniProt P35498); test: Patchliner electrophysiological in-vitro assay, NaV1.1; format: cell-based; details: Patchliner patch clamp, CHO cells
T1 construct: expressed in transfected cells; host or cells: CHO
Experimental: (§1) In vitro assays were performed in recombinant cell line that stably express a heterotrimeric protein of interest from an introduced nucleic acid encoding the alpha subunit (hNav1.7, SCN9A), the beta subunit (SCNB1) and the beta subunit (SCNB2). The cell line was engineered using Human Embryonic Kidney 293 cells (HEK293) as host background. Additional cell lines stably expressing recombinant human NaVs (e.g., NaV1.1, NaV1.2, NaV1.3, NaV1.4, NaV1.5, NaV1.6, NaV1.7 or NaV1.8) alpha subunit alone or in combination with various beta subunits in Chinese Hamster Ovary (CHO) or HEK293 cells as a host background can also be used in in vitro assays.
(§2) The recording of sodium current from stable HEK293 cell lines expressing NaV1.7 or NaV1.5 or CHO cell lines expressing NaV1.1, NaV1.2, NaV1.3, NaV1.4, NaV1.6 or NaV1.8 was done on a Patchliner® instrument, Nanion Technologies. […]
(§3) Voltage protocols were designed to establish: 1) peak current amplitude (Imax), 2) test potential (Vmax) and 3) half-inactivation potential (V1/2) for each of the eight individual cells. […] To estimate test compound affinity to the inactivated state of sodium channel (Ki), the holding potential for each cell was set automatically to the V1/2 calculated from a steady-state inactivation data. […] The dose-dependent inhibition was analyzed using Nanion's Data Analysis Package.

NaV1.8 = target: T2, NaV1.8 (Homo sapiens, UniProt Q9Y5Y9); test: Patchliner electrophysiological in-vitro assay, NaV1.8; format: cell-based; details: Patchliner patch clamp, CHO cells
T2 construct: expressed in transfected cells; host or cells: CHO
T2 sequence (Q9Y5Y9 whole entry): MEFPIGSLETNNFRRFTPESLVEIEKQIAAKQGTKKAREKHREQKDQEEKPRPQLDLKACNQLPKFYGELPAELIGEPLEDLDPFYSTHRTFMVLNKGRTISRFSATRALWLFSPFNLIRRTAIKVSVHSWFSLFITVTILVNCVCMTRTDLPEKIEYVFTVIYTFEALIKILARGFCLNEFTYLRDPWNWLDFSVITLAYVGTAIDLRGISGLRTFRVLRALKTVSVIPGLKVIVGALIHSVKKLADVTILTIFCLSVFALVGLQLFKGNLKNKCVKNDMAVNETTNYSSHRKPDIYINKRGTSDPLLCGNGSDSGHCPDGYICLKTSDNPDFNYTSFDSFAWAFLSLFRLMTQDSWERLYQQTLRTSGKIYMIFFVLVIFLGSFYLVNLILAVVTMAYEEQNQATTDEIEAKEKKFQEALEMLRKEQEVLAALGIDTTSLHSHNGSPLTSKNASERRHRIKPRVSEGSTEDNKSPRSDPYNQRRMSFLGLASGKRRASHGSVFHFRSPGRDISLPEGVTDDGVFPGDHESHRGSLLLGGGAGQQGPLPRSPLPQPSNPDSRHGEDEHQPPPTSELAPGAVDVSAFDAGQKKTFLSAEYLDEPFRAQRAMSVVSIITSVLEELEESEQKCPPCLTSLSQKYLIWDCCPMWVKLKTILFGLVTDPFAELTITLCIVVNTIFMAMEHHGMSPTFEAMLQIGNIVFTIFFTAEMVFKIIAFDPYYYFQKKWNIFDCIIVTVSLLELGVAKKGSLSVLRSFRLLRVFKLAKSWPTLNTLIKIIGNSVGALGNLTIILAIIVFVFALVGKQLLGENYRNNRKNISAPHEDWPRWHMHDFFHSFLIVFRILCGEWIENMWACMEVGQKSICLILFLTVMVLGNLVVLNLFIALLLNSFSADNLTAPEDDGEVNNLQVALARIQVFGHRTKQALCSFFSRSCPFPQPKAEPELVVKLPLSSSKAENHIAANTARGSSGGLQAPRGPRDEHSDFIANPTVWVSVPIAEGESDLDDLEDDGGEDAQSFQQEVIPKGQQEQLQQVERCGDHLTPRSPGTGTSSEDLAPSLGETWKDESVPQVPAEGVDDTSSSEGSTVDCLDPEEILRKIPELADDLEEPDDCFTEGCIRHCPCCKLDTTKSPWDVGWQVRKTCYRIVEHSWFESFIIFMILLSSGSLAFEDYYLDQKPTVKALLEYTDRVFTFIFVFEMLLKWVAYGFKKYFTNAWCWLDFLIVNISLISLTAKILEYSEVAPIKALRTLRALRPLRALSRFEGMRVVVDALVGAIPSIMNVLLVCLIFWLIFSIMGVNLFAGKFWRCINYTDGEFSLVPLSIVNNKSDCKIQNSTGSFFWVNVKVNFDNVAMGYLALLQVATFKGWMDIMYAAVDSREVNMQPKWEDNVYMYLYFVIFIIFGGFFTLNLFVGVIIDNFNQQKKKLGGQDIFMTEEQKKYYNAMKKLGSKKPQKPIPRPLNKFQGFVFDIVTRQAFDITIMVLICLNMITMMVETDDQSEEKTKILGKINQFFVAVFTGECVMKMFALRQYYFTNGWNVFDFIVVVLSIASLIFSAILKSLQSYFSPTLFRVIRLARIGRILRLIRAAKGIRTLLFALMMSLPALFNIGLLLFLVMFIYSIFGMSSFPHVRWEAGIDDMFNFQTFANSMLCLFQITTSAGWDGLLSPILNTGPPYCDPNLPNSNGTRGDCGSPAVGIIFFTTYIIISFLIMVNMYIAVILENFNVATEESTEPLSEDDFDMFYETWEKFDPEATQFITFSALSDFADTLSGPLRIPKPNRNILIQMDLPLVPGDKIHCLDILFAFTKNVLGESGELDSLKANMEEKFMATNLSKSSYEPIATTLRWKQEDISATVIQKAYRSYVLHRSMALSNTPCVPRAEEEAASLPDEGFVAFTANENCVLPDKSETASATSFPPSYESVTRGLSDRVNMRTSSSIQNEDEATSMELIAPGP
Experimental: as §1, §2, §3

NaV1.4 = target: T3, NaV1.4 (Homo sapiens, UniProt P35499); test: Patchliner electrophysiological in-vitro assay, NaV1.4; format: cell-based; details: Patchliner patch clamp, CHO cells
T3 construct: expressed in transfected cells; host or cells: CHO
Experimental: as §1, §2, §3

NaV1.3 [1] = target: T4, NaV1.3 (Homo sapiens, UniProt Q9NY46); test: Patchliner electrophysiological in-vitro assay, NaV1.3; format: cell-based; parameters: expressed in transfected cells; host or cells: CHO; details: Patchliner patch clamp, CHO cells; read-out: NaV 1.3 IC50
Experimental: as §1, §2, §3

NaV1.5 = target: T5, NaV1.5 (Homo sapiens, UniProt Q14524); test: Patchliner electrophysiological in-vitro assay, NaV1.5; format: cell-based; details: Patchliner patch clamp, HEK293 cells
T5 construct: expressed in transfected cells; host or cells: HEK293
T5 sequence (Q14524 whole entry): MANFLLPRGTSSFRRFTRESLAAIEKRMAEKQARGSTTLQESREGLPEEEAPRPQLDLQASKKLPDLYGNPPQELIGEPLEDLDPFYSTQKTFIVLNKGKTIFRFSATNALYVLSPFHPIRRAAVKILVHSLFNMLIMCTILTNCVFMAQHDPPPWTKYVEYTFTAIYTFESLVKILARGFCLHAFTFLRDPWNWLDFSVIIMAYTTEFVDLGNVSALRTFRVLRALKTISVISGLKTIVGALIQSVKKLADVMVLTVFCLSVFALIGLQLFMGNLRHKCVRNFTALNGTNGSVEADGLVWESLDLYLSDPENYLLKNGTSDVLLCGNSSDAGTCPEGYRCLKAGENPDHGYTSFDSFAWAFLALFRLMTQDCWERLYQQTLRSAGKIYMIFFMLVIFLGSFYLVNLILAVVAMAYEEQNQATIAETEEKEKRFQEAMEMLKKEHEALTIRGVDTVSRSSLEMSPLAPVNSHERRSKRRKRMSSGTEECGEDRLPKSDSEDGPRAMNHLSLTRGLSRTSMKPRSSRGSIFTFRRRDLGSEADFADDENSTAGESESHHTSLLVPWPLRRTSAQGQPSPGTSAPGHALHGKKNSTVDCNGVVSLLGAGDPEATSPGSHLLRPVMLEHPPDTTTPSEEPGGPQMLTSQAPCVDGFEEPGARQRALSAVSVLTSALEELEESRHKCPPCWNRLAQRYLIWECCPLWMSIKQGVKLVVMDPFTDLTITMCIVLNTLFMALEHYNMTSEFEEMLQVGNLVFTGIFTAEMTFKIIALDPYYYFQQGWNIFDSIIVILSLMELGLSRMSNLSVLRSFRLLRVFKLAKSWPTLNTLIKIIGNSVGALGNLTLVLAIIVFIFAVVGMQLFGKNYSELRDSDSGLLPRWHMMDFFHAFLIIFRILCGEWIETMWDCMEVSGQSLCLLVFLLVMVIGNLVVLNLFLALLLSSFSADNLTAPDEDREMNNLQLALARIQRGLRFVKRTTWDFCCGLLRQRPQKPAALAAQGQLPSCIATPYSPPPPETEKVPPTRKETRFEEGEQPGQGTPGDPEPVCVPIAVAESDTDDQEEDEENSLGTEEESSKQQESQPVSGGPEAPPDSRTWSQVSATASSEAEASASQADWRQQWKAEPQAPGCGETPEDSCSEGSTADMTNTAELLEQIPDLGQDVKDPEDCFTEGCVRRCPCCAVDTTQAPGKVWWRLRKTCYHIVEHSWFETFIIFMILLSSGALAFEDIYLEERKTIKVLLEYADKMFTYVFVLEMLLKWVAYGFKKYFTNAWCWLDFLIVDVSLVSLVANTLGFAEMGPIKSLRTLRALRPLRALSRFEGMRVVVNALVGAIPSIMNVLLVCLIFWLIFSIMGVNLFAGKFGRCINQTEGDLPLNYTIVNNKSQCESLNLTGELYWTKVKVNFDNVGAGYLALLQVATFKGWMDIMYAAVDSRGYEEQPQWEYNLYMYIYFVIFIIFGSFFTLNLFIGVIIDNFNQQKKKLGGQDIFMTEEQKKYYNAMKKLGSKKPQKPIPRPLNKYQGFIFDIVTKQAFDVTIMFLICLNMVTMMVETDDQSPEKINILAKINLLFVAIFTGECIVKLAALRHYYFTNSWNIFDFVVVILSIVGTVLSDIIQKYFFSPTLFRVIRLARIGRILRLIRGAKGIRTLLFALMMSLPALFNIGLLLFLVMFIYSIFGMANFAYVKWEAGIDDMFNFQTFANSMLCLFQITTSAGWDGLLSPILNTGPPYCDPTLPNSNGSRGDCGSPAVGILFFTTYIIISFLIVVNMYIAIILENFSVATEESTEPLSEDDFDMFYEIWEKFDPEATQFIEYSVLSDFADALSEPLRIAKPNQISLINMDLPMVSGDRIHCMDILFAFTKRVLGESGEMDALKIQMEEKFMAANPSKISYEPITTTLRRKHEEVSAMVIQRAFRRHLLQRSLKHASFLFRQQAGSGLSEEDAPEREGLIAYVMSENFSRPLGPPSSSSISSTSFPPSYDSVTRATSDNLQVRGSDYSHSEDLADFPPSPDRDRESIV
Experimental: as §1
The recording of sodium current from stable HEK293 cell lines expressing NaV1.7 or NaV1.5 or CHO cell lines expressing NaV1.1, NaV1.2, NaV1.3, NaV1.4, NaV1.6 or NaV1.8 was done on a Patchliner® instrument, Nanion Technologies. The Patchliner® is a fully automated bench-top patch clamp platform and can record simultaneously from up to eight single cells with GΩ seals.
For patch-clamp experiments, cells were grown under standard culturing conditions in Dulbecco's Modified Eagles medium supplemented with 10% fetal bovine serum, glutamine and HEPES. Cells were harvested and kept in suspension for up to 4 hours with no significant change in quality or ability to patch. Whole cell patch clamp recordings were conducted according to Nanion's standard procedure for the Patchliner®. Experiments were conducted at room temperature.
Voltage protocols were designed to establish: 1) peak current amplitude (Imax), 2) test potential (Vmax) and 3) half-inactivation potential (V1/2) for each of the eight individual cells. To determine V1/2, a standard steady-state inactivation protocol was executed using a series of fifteen 500 ms depolarizing pre-pulses in 10 mV increments (starting at −130 mV) and immediately followed by a 10 ms test pulse to Vmax. To estimate test compound affinity to the inactivated state of sodium channel (Ki), the holding potential for each cell was set automatically to the V1/2 calculated from a steady-state inactivation data. The current was activated with the following voltage protocol: holding at V1/2 for 2-5 seconds, return to the −120 mV for 5-10 ms to relieve fast inactivation, stepping to test potential (Vmax) for 10-20 ms. This voltage protocol was repeated every 10 seconds to establish the baseline with 2-3 buffer additions followed by the test compound addition. The dose-dependent inhibition was analyzed using Nanion's Data Analysis Package.

[2] = tested on: streptozotocin-induced diabetic rats; test: Anti-diabetic effect in rat streptozotocin-induced model for diabetes; format: in vivo, Sprague-Dawley rats; details: STZ diabetic rats
Experimental: 250-350 g male Sprague-Dawley rats from appropriate animal resources were used. Type I diabetes was induced by a single injection, (intraperitoneally, intravenously or intramuscularly) of 50-100 mg/kg of streptozotocin (STZ, Sigma Chemicals, St. Louis, Mo. or VWR) freshly dissolved in sodium citrate (0.01 M, pH 4.5). Sham animals were given either saline or same vehicle injection. Following a wait time of about two days, inducement of diabetes was confirmed in STZ-injected rats by measuring the plasma glucose concentrations in blood samples from the tail vein after a fast of 6 hours. The glucose level was assayed using a mini glucose monitor (kit for AlphaTRAK 2 meter, available from Abbott Laboratories). Screening for hyperglycemia in STZ-injected animals was done, with only animals with a final blood glucose level ≧300 mg/dl being selected for the study. Glucose levels in the sham animals remained normal. Other parameters (water intake, food intake, and bodyweight) were monitored before the treatment with a test compound and after the cessation of the treatment.
The baseline glucose levels, daily food and water intake and behavioral tests (von Frey, paw pressure and plantar tests) were measured for each animal once weekly for 28 weeks, and once every 2-4 weeks for an additional 28-30 weeks. At a selected week (started from week 6) for a compound test, diabetic rats were divided into two test groups: a vehicle control group and a test compound treated group (n=10 each group). A sham group (saline only without STZ i.p. injection, n=10) was added as a normal, non-diabetic control group. To minimize animal stress associated with repeated daily handling, the compound treated diabetic group of animals received the test compound (compound 49) at a daily dose of 60 mg/kg in their drinking water containing 2% PEG600 and 1% glycofurol (the test compound concentration in the drinking water was based on the individual animal's average daily water consumption as determined the pre-dosing period, which averaged 0.1-0.11 mg/ml). The vehicle control group received drinking water containing 2% PEG600 and 1% glycofurol without the test compound. The treatment continued for 9 days. On day 10 drinking water with test compound or vehicle (2% PEG600 and 1% glycofurol) was replaced with plain drinking water in all groups. The monitoring of glucose levels, food and water intake as well as behavior tests continued for additional 28-30 weeks.

NaV1.3 [3] = target: T4, NaV1.3; test: Assay similar to Patchliner assay using CHO or HEK293 cell lines expressing NaV1.3; format: cell-based; parameters: expressed in transfected cells; host or cells: CHO or HEK293
hNaV1.7 = target: T6, hNaV1.7 (Homo sapiens, UniProt Q15858); test: FDSS membrane potential in-vitro assay; format: cell-based; details: HEK293 cells expressing hNaV1.7 α, β1 and β2, veratridine and scorpion venom stimulation, read-out: NaV1.7 IC50
T6 construct: expressed in transfected cells; host or cells: HEK293

NaV1.7 = target: T7, NaV1.7 (Homo sapiens, UniProt Q15858); test: Patchliner electrophysiological in-vitro assay, NaV1.7; format: cell-based; details: Patchliner patch clamp, HEK293 cells, holding at V1/2
T7 construct: expressed in transfected cells; host or cells: HEK293
Experimental: as §1, §2, §3

[4] = 60 mg/kg/day in drinking water for 9 days, after treatment stopped, continues through week 52

IC50 (NaV1.1): > 10 µM
IC50 (NaV1.8): > 10 µM
IC50 (NaV1.4): > 3 µM
IC50 (NaV1.3 [1]): > 10 µM
SMILES: O=C(O)CCNC(=O)c1cc(-c2cc(Cl)ccc2Oc2cc(F)c(S(=O)(=O)Nc3ncns3)cc2Cl)ccn1 [Compound 1, 3-(4-(2-(4-(N-(1,2,4-thiadiazol-5-yl)sulfamoyl)-2-chloro-5-fluorophenoxy)-5-chlorophenyl)picolinamido)propanoic acid]

SMILES: O=C(O)CCNCCCc1cc(Cl)ccc1Oc1cc(F)c(S(=O)(=O)Nc2nccs2)cc1F [Compound 43, 3-((3-(5-chloro-2-(2,5-difluoro-4-(N-(thiazol-2-yl)sulfamoyl)phenoxy)phenyl)propyl)amino)propanoic acid]
IC50 (NaV1.5): > 10 µM

SMILES: CN(CCCc1cc(Cl)ccc1Oc1cc(F)c(S(=O)(=O)Nc2cscn2)cc1Cl)CC(=O)O [Compound 47, 2-((3-(5-chloro-2-(2-chloro-5-fluoro-4-(N-(thiazol-4-yl)sulfamoyl)phenoxy)phenyl)propyl)(methyl)amino)acetic acid]
IC50 (NaV1.5): > 10 µM

IC50 (NaV1.1): > 10 µM
IC50 (NaV1.8): > 10 µM
IC50 (NaV1.4): > 3 µM
IC50 (NaV1.3 [3]): > 10 µM
SMILES: NC(=O)CNCCCc1cc(Cl)ccc1Oc1cc(F)c(S(=O)(=O)Nc2cscn2)cc1Cl [Compound 49, 2-((3-(5-chloro-2-(2-chloro-5-fluoro-4-(N-(thiazol-4-yl)sulfamoyl)phenoxy)phenyl)propyl)amino)acetamide]
general appearance and/or health ([2]; 60 mg/kg/day for 9 days, after treatment stopped on day 9): improvements in general appearance and/or health
food intake compared to the vehicle control group [2, 4]: significantly reduced
glucose level compared to the vehicle control group [2, 4]: significantly reduced
water intake compared to the vehicle control group [2, 4]: significantly reduced

IC50 (NaV1.7): < 0.1 µM
SMILES: C#CCN(CCCc1cc(Cl)ccc1Oc1cc(F)c(S(=O)(=O)Nc2nccs2)cc1Cl)CC(=O)O [Compound 54, 2-((3-(5-chloro-2-(2-chloro-5-fluoro-4-(N-(thiazol-2-yl)sulfamoyl)phenoxy)phenyl)propyl)(prop-2-yn-1-yl)amino)acetic acid]
IC50 (hNaV1.7): < 0.1 µM
IC50 (NaV1.5): > 10 µM

SMILES: CS(=O)(=O)CCNCCCc1cc(Cl)ccc1Oc1cc(F)c(S(=O)(=O)Nc2nccs2)cc1Cl [Compound 59, 5-chloro-4-(4-chloro-2-(3-((2-(methylsulfonyl)ethyl)amino)propyl)phenoxy)-2-fluoro-N-(thiazol-2-yl)benzenesulfonamide]
IC50 (NaV1.5): > 10 µM

SMILES: NC(=O)CNCCCc1ccccc1Oc1cc(F)c(S(=O)(=O)Nc2cscn2)cc1Cl [Compound 60, 2-((3-(2-(2-chloro-5-fluoro-4-(N-(thiazol-4-yl)sulfamoyl)phenoxy)phenyl)propyl)amino)acetamide]
IC50 (NaV1.5): > 10 µM

SMILES: C#CCN(CCCc1cc(Cl)ccc1Oc1cc(F)c(S(=O)(=O)Nc2cscn2)cc1Cl)CC(=O)O [Compound 61, 2-((3-(5-chloro-2-(2-chloro-5-fluoro-4-(N-(thiazol-4-yl)sulfamoyl)phenoxy)phenyl)propyl)(prop-2-yn-1-yl)amino)acetic acid]
IC50 (NaV1.5): > 10 µM

SMILES: C=CCN(CCCc1cc(Cl)ccc1Oc1cc(F)c(S(=O)(=O)Nc2nccs2)cc1Cl)CC(=O)O [Compound 62, 2-(allyl(3-(5-chloro-2-(2-chloro-5-fluoro-4-(N-(thiazol-2-yl)sulfamoyl)phenoxy)phenyl)propyl)amino)acetic acid]
IC50 (NaV1.5): > 10 µM

SMILES: NC(=O)CNCCCc1cc(Cl)ccc1Oc1cc(F)c(S(=O)(=O)Nc2nccs2)cc1Cl [Compound 63, 2-((3-(5-chloro-2-(2-chloro-5-fluoro-4-(N-(thiazol-2-yl)sulfamoyl)phenoxy)phenyl)propyl)amino)acetamide]
IC50 (NaV1.5): > 10 µM

SMILES: CCCN(CCCc1cc(Cl)ccc1Oc1cc(F)c(S(=O)(=O)Nc2nccs2)cc1Cl)CC(=O)O [Compound 65, 2-((3-(5-chloro-2-(2-chloro-5-fluoro-4-(N-(thiazol-2-yl)sulfamoyl)phenoxy)phenyl)propyl)(propyl)amino)acetic acid]
IC50 (NaV1.5): > 10 µM

SMILES: C#CCN(CCCc1cc(Cl)ccc1Oc1cc(F)c(S(=O)(=O)Nc2nccs2)cc1Cl)CCC(=O)O [Compound 66, 3-((3-(5-chloro-2-(2-chloro-5-fluoro-4-(N-(thiazol-2-yl)sulfamoyl)phenoxy)phenyl)propyl)(prop-2-yn-1-yl)amino)propanoic acid]
IC50 (NaV1.5): > 10 µM
